Experiments:
Assay in all cases: viability relative to DMSO control (fraction); higher = less drug effect (more viable cells)
Conditions in all cases: 48 h
[1] = test system: primary AML patient cells (S017)
In short: (§1)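 Compounds were pre-plated at five concentrations, one well each, in 384-well plates, and primary mononuclear tumour cells were plated on them at 4 × 10^4 cells per well. The cells, fresh or cryopreserved, had been Ficoll-isolated from blood or bone marrow or taken from processed lymph node. After 48 h at 37 °C and 5% CO2 in RPMI-1640 with penicillin/streptomycin, L-glutamine and human serum, viability was read as CellTiter-Glo luminescence relative to the median of 16 inner DMSO wells.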

[2] = test system: primary AML patient cells (S085)
In short: as §1

[3] = test system: primary AML patient cells (S071)
In short: as §1

[4] = test system: primary AML patient cells (S081)
In short: as §1

[5] = test system: primary AML patient cells (S025)
In short: as §1

[6] = test system: primary AML patient cells (S002)
In short: as §1

[7] = test system: primary AML patient cells (S021)
In short: as §1

[8] = test system: primary AML patient cells (S011)
In short: as §1

[9] = test system: primary AML patient cells (S019)
In short: as §1

[10] = test system: primary CLL patient cells (S043)
In short: as §1

[11] = test system: primary BL patient cells (S005)
In short: as §1

[12] = test system: primary AML patient cells (S060)
In short: as §1

[13] = test system: primary B-PLL patient cells (S016)
In short: as §1

[14] = test system: primary ALL patient cells (S088)
In short: as §1

Nc1ncn([C@@H]2O[C@H](CO)[C@@H](O)[C@H]2O)c(=O)n1 [Azacytidine (Vidaza)] was tested, and the viability ([1]; 0.032 µM) was 0.912, the viability ([1]; 0.16 µM) was 0.96 and the viability ([1]; 0.8 µM) was 0.935. It also gave a viability ([1]; 4 µM) of 0.661, a viability ([1]; 20 µM) of 0.562 and a viability ([2]; 0.032 µM) of 1.22. For the same compound, the viability ([2]; 0.16 µM) was 0.976, the viability ([2]; 0.8 µM) was 0.638 and the viability ([2]; 4 µM) was 0.14. For the same compound, the viability ([2]; 20 µM) was 0.0812, the viability ([3]; 0.032 µM) was 0.968 and the viability ([3]; 0.16 µM) was 0.985. For the same compound, the viability ([3]; 0.8 µM) was 0.695, the viability ([3]; 4 µM) was 0.29 and the viability ([3]; 20 µM) was 0.131. For the same compound, the viability ([4]; 0.032 µM) was 0.955, the viability ([4]; 0.16 µM) was 1.08 and the viability ([4]; 0.8 µM) was 1.04. For the same compound, the viability ([4]; 4 µM) was 0.951, the viability ([4]; 20 µM) was 0.832 and the viability ([5]; 0.032 µM) was 1.07. For the same compound, the viability ([5]; 0.16 µM) was 0.961, the viability ([5]; 0.8 µM) was 0.757 and the viability ([5]; 4 µM) was 0.285. For the same compound, the viability ([5]; 20 µM) was 0.0947, the viability ([6]; 0.032 µM) was 0.946 and the viability ([6]; 0.16 µM) was 0.979. For the same compound, the viability ([6]; 0.8 µM) was 0.667, the viability ([6]; 4 µM) was 0.31 and the viability ([6]; 20 µM) was 0.229. For the same compound, the viability ([7]; 0.032 µM) was 0.982, the viability ([7]; 0.16 µM) was 1.17 and the viability ([7]; 0.8 µM) was 0.936. For the same compound, the viability ([7]; 4 µM) was 0.501, the viability ([7]; 20 µM) was 0.31 and the viability ([8]; 0.032 µM) was 1.05. It also gave a viability ([8]; 0.16 µM) of 1.29, a viability ([8]; 0.8 µM) of 0.811 and a viability ([8]; 4 µM) of 0.32. For the same compound, the viability ([8]; 20 µM) was 0.134, the viability ([9]; 0.032 µM) was 0.935 and the viability ([9]; 0.16 µM) was 1.34. The viability ([9]; 0.8 µM) was 0.986, the viability ([9]; 4 µM) was 0.522 and the viability ([9]; 20 µM) was 0.308. It also gave a viability ([10]; 0.032 µM) of 0.937, a viability ([10]; 0.16 µM) of 1.11 and a viability ([10]; 0.8 µM) of 0.889. It also gave a viability ([10]; 4 µM) of 0.716, a viability ([10]; 20 µM) of 0.55 and a viability ([11]; 0.032 µM) of 0.847. For the same compound, the viability ([11]; 0.16 µM) was 0.862, the viability ([11]; 0.8 µM) was 0.841 and the viability ([11]; 4 µM) was 0.766. For the same compound, the viability ([11]; 20 µM) was 0.708, the viability ([12]; 0.032 µM) was 1 and the viability ([12]; 0.16 µM) was 1.02. It also gave a viability ([12]; 0.8 µM) of 1.02, a viability ([12]; 4 µM) of 1.02 and a viability ([12]; 20 µM) of 0.923. The viability ([13]; 0.032 µM) was 1.03, the viability ([13]; 0.16 µM) was 1.06 and the viability ([13]; 0.8 µM) was 0.912. The viability ([13]; 4 µM) was 0.142, the viability ([13]; 20 µM) was 0.0474 and the viability ([14]; 0.032 µM) was 0.958. The viability ([14]; 0.16 µM) was 1.06, the viability ([14]; 0.8 µM) was 0.934 and the viability ([14]; 4 µM) was 0.552. For the same compound, the viability ([14]; 20 µM) was 0.233.
CC1(COc2ccc3c(c2)ncn3-c2ccc3cccc(N4CCC(N)CC4)c3n2)COC1 [Crenolanib] gave a viability ([1]; 0.016 µM) of 1.05, a viability ([1]; 0.08 µM) of 1.09 and a viability ([1]; 0.4 µM) of 1.12. For the same compound, the viability ([1]; 2 µM) was 1.16, the viability ([1]; 10 µM) was 0.109 and the viability ([2]; 0.016 µM) was 1.13. For the same compound, the viability ([2]; 0.08 µM) was 1.3, the viability ([2]; 0.4 µM) was 2.22 and the viability ([2]; 2 µM) was 1.82. For the same compound, the viability ([2]; 10 µM) was 0.0652, the viability ([3]; 0.016 µM) was 0.672 and the viability ([3]; 0.08 µM) was 0.712. The viability ([3]; 0.4 µM) was 0.778, the viability ([3]; 2 µM) was 1.38 and the viability ([3]; 10 µM) was 0.103. For the same compound, the viability ([4]; 0.016 µM) was 0.948, the viability ([4]; 0.08 µM) was 1.09 and the viability ([4]; 0.4 µM) was 0.953. The viability ([4]; 2 µM) was 1.07, the viability ([4]; 10 µM) was 0.0325 and the viability ([5]; 0.016 µM) was 0.983. It also gave a viability ([5]; 0.08 µM) of 1.12, a viability ([5]; 0.4 µM) of 1.29 and a viability ([5]; 2 µM) of 1.29. The viability ([5]; 10 µM) was 0.173, the viability ([6]; 0.016 µM) was 0.956 and the viability ([6]; 0.08 µM) was 1.13. For the same compound, the viability ([6]; 0.4 µM) was 1.3, the viability ([6]; 2 µM) was 1.5 and the viability ([6]; 10 µM) was 0.426. It also gave a viability ([7]; 0.016 µM) of 1.04, a viability ([7]; 0.08 µM) of 1.15 and a viability ([7]; 0.4 µM) of 1.17. It also gave a viability ([7]; 2 µM) of 0.984, a viability ([7]; 10 µM) of 0.453 and a viability ([8]; 0.016 µM) of 1.14. It also gave a viability ([8]; 0.08 µM) of 0.997, a viability ([8]; 0.4 µM) of 1.02 and a viability ([8]; 2 µM) of 0.824. For the same compound, the viability ([8]; 10 µM) was 0.0337, the viability ([9]; 0.016 µM) was 0.927 and the viability ([9]; 0.08 µM) was 1.17. For the same compound, the viability ([9]; 0.4 µM) was 0.995, the viability ([9]; 2 µM) was 1.19 and the viability ([9]; 10 µM) was 0.148. The viability ([10]; 0.016 µM) was 0.963, the viability ([10]; 0.08 µM) was 1.15 and the viability ([10]; 0.4 µM) was 1.17. For the same compound, the viability ([10]; 2 µM) was 1.06, the viability ([10]; 10 µM) was 0.0329 and the viability ([11]; 0.016 µM) was 0.9. For the same compound, the viability ([11]; 0.08 µM) was 0.959, the viability ([11]; 0.4 µM) was 0.896 and the viability ([11]; 2 µM) was 0.913. For the same compound, the viability ([11]; 10 µM) was 0.414, the viability ([12]; 0.016 µM) was 1.12 and the viability ([12]; 0.08 µM) was 1.1. It also gave a viability ([12]; 0.4 µM) of 1.05, a viability ([12]; 2 µM) of 1.02 and a viability ([12]; 10 µM) of 0.0351. For the same compound, the viability ([13]; 0.016 µM) was 1.04, the viability ([13]; 0.08 µM) was 1.24 and the viability ([13]; 0.4 µM) was 0.794. The viability ([13]; 2 µM) was 0.553, the viability ([13]; 10 µM) was 0.0382 and the viability ([14]; 0.016 µM) was 0.695. For the same compound, the viability ([14]; 0.08 µM) was 0.674, the viability ([14]; 0.4 µM) was 0.584 and the viability ([14]; 2 µM) was 0.439. The viability ([14]; 10 µM) was 0.033.
